Measurements reported in ChEMBL document CHEMBL1150656, “Constituents of the stigmas of Crocus sativus and their tyrosinase inhibitory activity” (J Nat Prod, 2002).

Biological target: T1, Tyrosinase (Agaricus bisporus, UniProt O42713)
T1 sequence (O42713 whole entry): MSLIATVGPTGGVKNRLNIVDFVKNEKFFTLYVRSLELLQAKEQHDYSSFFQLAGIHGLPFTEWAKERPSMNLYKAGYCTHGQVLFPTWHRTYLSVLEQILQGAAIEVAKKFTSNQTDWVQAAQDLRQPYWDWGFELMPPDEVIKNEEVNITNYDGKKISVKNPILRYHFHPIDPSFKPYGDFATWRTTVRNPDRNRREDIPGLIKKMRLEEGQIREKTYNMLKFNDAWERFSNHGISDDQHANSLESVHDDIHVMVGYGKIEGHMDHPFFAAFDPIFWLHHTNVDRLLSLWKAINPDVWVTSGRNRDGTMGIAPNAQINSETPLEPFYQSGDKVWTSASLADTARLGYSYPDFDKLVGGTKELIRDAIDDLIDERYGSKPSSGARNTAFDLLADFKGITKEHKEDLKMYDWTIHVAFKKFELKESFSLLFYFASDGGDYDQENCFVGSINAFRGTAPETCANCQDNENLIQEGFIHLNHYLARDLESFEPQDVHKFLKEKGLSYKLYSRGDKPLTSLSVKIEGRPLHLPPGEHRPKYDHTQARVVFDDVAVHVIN
Description: Inhibition of mushroom tyrosinase

| IC50 | Structure (SMILES) |
| --- | --- |
| 960 µM | CC(/C=C/C=C(\C)C(=O)O)=C\C=C\C=C(C)\C=C\C=C(/C)C(=O)O[C@@H]1O[C@H](CO[C@@H]2O[C@H](CO)[C@@H](O)[C@H](O)[C@H]2O)[C@@H](O)[C@H](O)[C@H]1O [CROCIN 3] |
| 140 µM | CC(/C=C/C=C(\C)C(=O)O[C@@H]1O[C@H](CO[C@@H]2O[C@H](CO)[C@@H](O)[C@H](O)[C@H]2O)[C@@H](O)[C@H](O)[C@H]1O)=C\C=C\C=C(C)\C=C\C=C(/C)C(=O)O[C@@H]1O[C@H](CO[C@@H]2O[C@H](CO)[C@@H](O)[C@H](O)[C@H]2O)[C@@H](O)[C@H](O)[C@H]1O [CROCIN] |
| 870 µM | CC1=C([C@@H](O)CC(=O)O)C(C)(C)C[C@@H](O)C1 [CROCUSATIN H] |
| 4500 µM | Oc1ccc(O)cc1 [HYDROQUINONE] |
